The text below walks through data of the Bradley open melting point set (2014).

In general, melting point refers to the temperature, or range, at which the solid turns liquid. The compound `O=C(C[C@H](NC(=O)OCc1ccccc1)C(=O)O)OCc1ccccc1` [N-benzyloxycarbonyl-l-aspartic acid 4-benzyl ester] yielded a melting point of 106 °C.
As for `O=S(F)F` [Thionyl difluoride], the figure is -110 °C; as for `C1COCCO1` [1,4-dioxane], 12 °C.
The compound `c1ccc2cc3cc4ccccc4cc3cc2c1` [2,3-benzanthracene] displayed a melting point of 341 °C.
Consider `COc1ccc(C(C)=O)cc1OC` [3,4-dimethoxyacetophenone], for which the melting point turned out to be 51 °C.
In the case of `O=S(=O)(O)F` [Sulfurofluoridic acid], the melting point was -87.3 °C.
As to `CC(C)(C)OC(=O)N[C@@H](Cc1ccc(Cl)cc1Cl)C(=O)O` [N-boc-2,4-dichloro-L-phenylalanine], the melting point worked out at 135 °C.
For `CC(C)(C)c1cc(N)n[nH]1` [3-amino-5-tert-butyl-1h-pyrazole], the melting point was found to be 77 °C.
Take `Cc1nnc(S)s1` [5-methyl-1,3,4-thiadiazole-2-thiol]: the melting point was 187 °C.
On to `FC(F)(F)c1ccccc1Cl` [2-chlorobenzotrifluoride], for which the melting point is -6 °C.
On to `Cc1cc(=O)cc(C)o1` [2,6-dimethyl-4-pyrone], for which the melting point was 134 °C.
`COC(=O)c1cccc(N)c1` [methyl 3-aminobenzoate]: the melting point is 51 °C.
Take `CC(C)(N)CO` [2-Amino-2-methylpropan-1-ol]: the melting point was found to be 30 °C.
As for `O=C(O)CCCCC(=O)O` [adipic acid], the figure is 153 °C; as for `CCCCOC(=O)c1ccc(O)cc1` [butyl p-hydroxybenzoate], 69 °C; as for `C=CCI` [3-iodo-1-propene], -99 °C.
Take `CCCCCCCCNCCCCCCCC` [di-n-octylamine]: the melting point is 14 °C.
For the compound `OC[C@@H]1OC(O)[C@@H](O)[C@H]1O` (stereo partly drawn) [L-ribose], the melting point stood at 87 °C.
As for `Cc1cc(=O)oc2cc(O)ccc12` [7-Hydroxy-4-methyl-2H-chromen-2-one], the figure is 191 °C; as for `OCC(CO)(CO)CO` [pentaerythritol], 262 °C.
As to `O=C1OC(Sc2ccccc2)c2ccccc21` (stereo not given) [3-(phenylsulfanyl)-2-benzofuran-1(3H)-one], the melting point was 103 °C.
As for `O=S(=O)(Cc1ccccc1)c1ccccc1` [benzyl phenyl sulfone], the figure is 149 °C.
As for `O=C(O)[C@H]1CCCC[C@H]1C(=O)O` [cis-1,2-cyclohexanedicarboxylic acid], the figure is 191 °C.
As to `Nc1ccc(O)cc1` [p-aminophenol], the melting point was 189 °C.
As for `COc1cccc(C(=O)O)c1O` [2-hydroxy-3-methoxybenzoic acid], the figure is 152 °C.
`CCc1nc(N)nc(N)c1-c1ccc(Cl)cc1` [Pyrimethamine] showed a melting point of 234 °C.
Take `Nc1ccccc1N` [o-phenylenediamine]: the melting point stood at 102 °C.
`Cc1nnc2n1-c1ccc(Cl)cc1C(c1ccccc1Cl)=NC2` [Triazolam] had a melting point of 234 °C.
`COc1ccc([C@@H]2Sc3ccccc3N(CCN(C)C)C(=O)[C@@H]2OC(C)=O)cc1` [Diltiazem] registered a melting point of 231 °C.
`c1ccc2nc3ccccc3cc2c1` [acridine]: the melting point was 109 °C.
`CCCC(=O)c1cc2cc(Br)ccc2oc1=O` [6-bromo-3-butyrylcoumarin] gave a melting point of 164 °C.
As for `CCCc1c(O)cccc1O` [2-n-propylresorcinol], the figure is 103 °C; as for `CCOC(=O)c1c[nH]nc1C(F)(F)F` [ethyl 3-trifluoromethyl-1h-pyrazole-4-carboxylate], 144 °C; as for `Cc1ccc(N)cc1N` [2,4-diaminotoluene], 99 °C.
Consider `O=C(O)c1cc([N+](=O)[O-])cc([N+](=O)[O-])c1` [3,5-Dinitrobenzoic acid], for which the melting point is 206 °C.
